Blank lines part the entries; values can stand above or below the compound they belong to.
Key:
[1] = target: T1, Histone-lysine N-methyltransferase EHMT2 (Homo sapiens, UniProt Q96KQ7); experiment: Inhibition of G9a (685 to 1000) (unknown origin) expressed in Escherichia coli BL21 assessed as reduction of H3K9me2 level by DELFIA assay
T1 sequence (Q96KQ7 whole entry): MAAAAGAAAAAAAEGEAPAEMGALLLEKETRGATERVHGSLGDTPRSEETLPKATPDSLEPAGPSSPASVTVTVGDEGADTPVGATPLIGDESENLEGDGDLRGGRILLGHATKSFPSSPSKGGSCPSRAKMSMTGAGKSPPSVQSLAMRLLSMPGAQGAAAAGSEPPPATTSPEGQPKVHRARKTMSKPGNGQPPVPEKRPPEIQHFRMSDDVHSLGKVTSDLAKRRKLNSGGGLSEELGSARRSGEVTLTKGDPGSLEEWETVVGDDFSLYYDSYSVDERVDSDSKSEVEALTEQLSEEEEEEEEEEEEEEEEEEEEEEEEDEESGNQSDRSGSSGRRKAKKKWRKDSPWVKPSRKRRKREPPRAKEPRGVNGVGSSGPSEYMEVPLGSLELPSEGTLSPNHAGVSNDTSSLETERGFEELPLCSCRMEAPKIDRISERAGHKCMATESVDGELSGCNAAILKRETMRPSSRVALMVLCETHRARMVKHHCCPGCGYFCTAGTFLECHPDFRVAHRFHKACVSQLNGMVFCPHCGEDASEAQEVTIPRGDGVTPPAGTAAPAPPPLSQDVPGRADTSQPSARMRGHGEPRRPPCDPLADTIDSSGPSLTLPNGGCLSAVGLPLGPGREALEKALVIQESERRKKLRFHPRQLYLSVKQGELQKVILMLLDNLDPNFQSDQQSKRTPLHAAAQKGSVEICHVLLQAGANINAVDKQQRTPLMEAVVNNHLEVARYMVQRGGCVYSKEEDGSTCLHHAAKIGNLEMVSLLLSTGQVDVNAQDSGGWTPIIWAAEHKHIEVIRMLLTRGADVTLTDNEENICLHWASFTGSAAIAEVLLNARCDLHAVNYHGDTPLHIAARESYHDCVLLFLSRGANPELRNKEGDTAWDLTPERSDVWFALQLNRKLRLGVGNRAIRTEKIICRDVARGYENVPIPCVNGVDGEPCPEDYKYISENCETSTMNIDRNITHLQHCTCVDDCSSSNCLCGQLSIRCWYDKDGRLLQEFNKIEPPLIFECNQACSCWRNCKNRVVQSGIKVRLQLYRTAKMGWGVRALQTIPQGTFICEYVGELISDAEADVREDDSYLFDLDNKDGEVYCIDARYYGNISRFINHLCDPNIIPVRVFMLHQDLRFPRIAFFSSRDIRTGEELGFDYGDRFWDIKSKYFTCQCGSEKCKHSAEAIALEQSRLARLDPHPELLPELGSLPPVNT

[2] = target: T2, Protein arginine N-methyltransferase 1 (Homo sapiens, UniProt Q99873); experiment: Inhibition of GST-fused PRMT1 (unknown origin) expressed in Escherichia coli BL21 assessed as reduction of asymmetric H4R3me2 level by DELFIA assay
[3] = target: T3, NAD-dependent protein deacetylase sirtuin-1 (Homo sapiens, UniProt Q96EB6); experiment: Inhibition of recombinant human N-terminal GST-tagged full length SIRT1 expressed in Escherichia coli BL21(DE3) using ZMAL as substrate after 4 hrs by homogeneous fluorescent deacetylase assay
T3 sequence (Q96EB6 whole entry): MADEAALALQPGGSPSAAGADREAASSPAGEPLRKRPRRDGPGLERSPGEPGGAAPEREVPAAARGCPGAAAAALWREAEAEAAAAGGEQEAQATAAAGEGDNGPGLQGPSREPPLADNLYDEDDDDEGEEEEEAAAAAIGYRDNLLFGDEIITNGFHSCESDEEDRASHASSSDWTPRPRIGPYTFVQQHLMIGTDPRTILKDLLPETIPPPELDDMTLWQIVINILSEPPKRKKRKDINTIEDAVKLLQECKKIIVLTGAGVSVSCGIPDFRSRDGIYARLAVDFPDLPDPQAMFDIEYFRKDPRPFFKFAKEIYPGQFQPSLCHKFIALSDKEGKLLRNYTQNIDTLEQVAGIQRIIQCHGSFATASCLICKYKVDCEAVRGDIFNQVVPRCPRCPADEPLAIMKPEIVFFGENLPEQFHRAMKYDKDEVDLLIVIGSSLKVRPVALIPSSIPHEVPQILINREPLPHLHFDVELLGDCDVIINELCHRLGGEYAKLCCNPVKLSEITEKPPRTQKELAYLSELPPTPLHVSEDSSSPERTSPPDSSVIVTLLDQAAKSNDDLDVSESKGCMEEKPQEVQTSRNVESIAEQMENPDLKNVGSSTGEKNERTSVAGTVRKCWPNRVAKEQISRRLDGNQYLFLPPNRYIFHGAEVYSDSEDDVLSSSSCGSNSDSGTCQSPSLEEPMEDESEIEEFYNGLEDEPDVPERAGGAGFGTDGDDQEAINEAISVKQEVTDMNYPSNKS

[4] = target: T2, Protein arginine N-methyltransferase 1; experiment: Inhibition of recombinant human GST-tagged PRMT1 assessed as inhibition of histone methylation
[5] = target: Histone-lysine N-methyltransferase Su(var)3-9 (Drosophila melanogaster, UniProt P45975); experiment: Inhibition of Drosophila melanogaster Su(var)3-9
[6] = target: T1, Histone-lysine N-methyltransferase EHMT2; experiment: Inhibition of G9a (unknown origin)
[7] = target: T2, Protein arginine N-methyltransferase 1; experiment: Inhibition of human PRMT1 using GST-tagged Npl3 as substrate preincubated for 15 mins followed by enzyme addition measured after 1 hr by colorimetric assay

T2 sequence (Q99873 whole entry, the tested form may be a part): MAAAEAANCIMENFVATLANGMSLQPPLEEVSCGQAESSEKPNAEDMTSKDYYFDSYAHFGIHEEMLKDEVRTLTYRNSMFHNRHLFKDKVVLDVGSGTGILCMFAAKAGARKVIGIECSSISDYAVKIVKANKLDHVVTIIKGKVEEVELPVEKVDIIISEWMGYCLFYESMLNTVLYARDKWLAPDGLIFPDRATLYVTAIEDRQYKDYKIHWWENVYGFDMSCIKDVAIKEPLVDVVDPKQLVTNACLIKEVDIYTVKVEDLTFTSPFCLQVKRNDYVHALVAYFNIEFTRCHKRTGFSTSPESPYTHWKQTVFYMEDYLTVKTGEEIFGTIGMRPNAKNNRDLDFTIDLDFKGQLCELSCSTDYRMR
Chain of Histone-lysine N-methyltransferase Su(var)3-9 (P45975 whole entry): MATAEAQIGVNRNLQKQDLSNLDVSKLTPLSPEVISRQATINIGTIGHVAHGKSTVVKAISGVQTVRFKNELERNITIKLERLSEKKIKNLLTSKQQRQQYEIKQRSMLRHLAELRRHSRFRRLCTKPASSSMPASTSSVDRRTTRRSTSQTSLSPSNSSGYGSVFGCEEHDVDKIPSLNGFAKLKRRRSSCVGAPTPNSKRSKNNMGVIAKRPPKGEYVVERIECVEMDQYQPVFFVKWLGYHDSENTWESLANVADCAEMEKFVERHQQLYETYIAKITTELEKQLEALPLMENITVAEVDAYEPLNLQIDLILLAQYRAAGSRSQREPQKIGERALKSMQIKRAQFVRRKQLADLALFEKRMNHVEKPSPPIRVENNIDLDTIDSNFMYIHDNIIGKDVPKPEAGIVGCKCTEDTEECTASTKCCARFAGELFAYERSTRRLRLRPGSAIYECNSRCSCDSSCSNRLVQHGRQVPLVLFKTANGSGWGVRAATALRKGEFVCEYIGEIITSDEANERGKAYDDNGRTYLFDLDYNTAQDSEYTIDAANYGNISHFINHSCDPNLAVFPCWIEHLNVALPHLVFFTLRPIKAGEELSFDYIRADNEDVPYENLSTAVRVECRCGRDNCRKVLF

Structure (SMILES): O=C(Nc1ccc2c(O)cc(S(=O)(=O)O)cc2c1)Nc1ccc2c(O)cc(S(=O)(=O)O)cc2c1
IC50 [3]: 32 µM

Structure (SMILES): CN1C(=O)[C@@]23C[C@]4([C@]56C[C@@]78SS[C@@](CO)(C(=O)N7[C@H]5Nc5ccccc56)N(C)C8=O)c5ccccc5N[C@@H]4N2C(=O)[C@]1(CO)SS3 [CHAETOCIN]
IC50 [5]: 0.8 µM
IC50 [6]: 2.5 µM

Structure (SMILES): O=C1OC2(c3ccccc31)c1cc(Br)c(O)c(Br)c1Oc1c2cc(Br)c(O)c1Br [EOSIN]
IC50 [7]: 1 µM

Other lines, results leading:

IC50 [1]: 5 µM
IC50 [2]: 6 µM
Structure (SMILES): COc1ccc(C(=O)Oc2ccc(CCn3c(NC(=O)c4ccc(C(F)(F)F)cc4)nc4cc(C(=O)O)ccc43)cc2)cc1

IC50 [4]: 4 µM
Structure (SMILES): COc1ccc(/N=N/c2c(S(=O)(=O)O)cc3cc(Cc4nc(Cl)nc(Cl)n4)ccc3c2O)cc1

Source: ChEMBL document CHEMBL3390830, “Targeting epigenetic modifiers: Inhibitors of histone methyltransferases” (Medchemcomm, 2010)
